Test results reported in patent publication US20040039048A1, “Therapy with cannabinoid compounds for the treatment of brain tumors” (priority 2000, published 2004).
Entries after “also recorded” stand apart in the source; their conditions may differ. Read-outs that look alike come from different tables or passages of the source.

Assays:
C6 glioblastoma cells [1] = assay: C6 glioblastoma cells inoculated in rat brain; survival and magnetic resonance; assay type: in vivo, Wistar rats
Description: C6 glioblastoma cells were directly inoculated in the brain of Wistar rats and the tumors viewed by magnetic resonance. […] To evaluate the antitumoral potential of the cannabinoids, 12 days after inoculating the cells a group of animals was administered THC or WIN-55, 212-2 for 7 days through a cannula located at the site of inoculation.
Male Wistar rats (250-300 g in body mass) were anaesthetized with 3% isofluorane in an oxygen mixture (0.8 l/min) and protoxide (0.4 l/min). 5×10^8 C6 glioblastoma cells were prepared in 100 μl of saline solution buffered with phosphate (PBS) and supplemented with 0.1% glucose, and stereotaxically injected in the frontal parietal lobule of the right hemisphere (4 mm to the right of bregma, 4.5 mm depth from the cranium) (Izquierdo, M et al., Gene Ther. 2, 66-69, 1995). The rats received dexamethasone (2 mg/l) and tetracycline (75 mg/kg of body weight) in water for 3 days before and 7 days after inoculation of the cells. A thorough monitoring of the tumors was performed by magnetic resonance with the methods described by other authors (Izquierdo, M et al., op cit; Cortés, M. L., de Felipe, P., Martin, V. Hughes, M. A. & Izquierdo, M. Gene Ther. 5, 1499-1507, 1998).
The administration of cannabinoids to rats began 12 days after inoculation of the cells. At this time the average size of the tumors was 70 mm^3 (interval 25-100 mm^3) as estimated by magnetic resonance (Izquierdo, M et al., op cit; Cortés, de Felipe, Martin, Hughes & Izquierdo, M, op cit.). Cannabinoids were administered by a cannula placed at the place of inoculation of the tumor and attached to the cranium by dental cement; a small stainless steel screw anchored the cannula and the dental cement. The cannula was subcutaneously connected by a catheter to an osmotic mini-pump (Alzet 2001) which operated at a flow of 1 μl/h for 7 days. The osmotic pump was filled with 500-2500 μg of THC or 50-250 μg of WIN-55,212-2 in 200 μl of PBS supplemented with 5 mg/l of bovine serum albumin (BSA), delipidized and dialyzed.

C6 glioblastoma cells [2] = assay: C6 glioblastoma cells inoculated subcutaneously in immunodeficient RAG-2-/- mice; tumor size; assay type: in vivo; details: 500 μg of THC or 50 μg of WIN-55,212-2 per day for 7 days, caliper, P<0.01 Student t test
Description: In order to discern whether the antiproliferative action of cannabinoids was due to a direct effect on the tumoral cells or to an indirect effect mediated by an immune response, C6 glioblastoma cells were inoculated subcutaneously in mice with a deficiency of recombinase RAG-2 (RAG-2^-/-), which lack mature T and B lymphocytes (Shinkai et al. Cell 68, 855-867, 1992).
Tumors were induced in RAG-2^-/- […] by subcutaneous inoculation of 5×10^6 C6 glioblastoma cells in 100 μl of PBS supplemented with 0.1% glucose. […] The tumor sizes were measured by a caliper and their volume calculated according to (4π/3)×(width/2)^2×(length/2). […] In FIG. 4b are shown examples of tumor bearing mice and tumors dissected after treatment with or without cannabinoids for 7 days.

C6 glioblastoma cells [3] = assay: Viability of C6 glioblastoma culture cells (MTT method); assay type: cell-based; details: for IC50: after 5 days of exposure, n=4, read-out: concentration reducing viability of C6 glioblastoma by 50%; for prevention of cell death induced by THC, the two antagonists SR141716 and SR144528 jointly added: 1 μM SR141716 and 1 μM SR144528, 5 days
Description: Experiments were conducted with the object of obtaining a pharmacological characterization of cannabinoid-induced death of C6 glioblastoma culture cells.
C6 glioblastoma cells were cultivated at 37° C. and 5% CO2 in F-12 medium supplemented with calf fetal serum at 10%. 24 h before the start of the experiment the cells were transferred to an F-12 medium free of serum and supplemented with insulin (5 μg/ml), transferrine (10 μg/ml), sodium selenite (5 μg/ml) and delipidized and dialyzed BSA (10 mg/ml). The medium was renovated every 48 h and the cell viability was determined by the MTT method (Sanchez, C., Galve-Roperh, I., Canova, C., Brachet, P. & Guzman, M., op cit.).

[4] = fraction of treated animals, 7 days through cannula from day 12

| Molecule | size of tumors versus control animals (C6 glioblastoma cells [2]) | IC50 (C6 glioblastoma cells [3]) [nM] | IC50 (C6 glioblastoma cells [3]; 120 h) [nM] | prevention of cell death induced by THC, the two antagonists SR141716 and SR144528 jointly added (C6 glioblastoma cells [3]; 1 μM THC) | other results |
| --- | --- | --- | --- | --- | --- |
| Cc1c(C(=O)c2cccc3ccccc23)c2cccc3c2n1[C@H](CN1CCOCC1)CO3 [WIN-55,212-2] | much smaller | 20 | – | – | survival time (C6 glioblastoma cells [1]; days after inoculation, in the responding animals, cannabinoid for 7 days through cannula at site of inoculation from day 12, untreated died 12-18 days): 19 to 43 days; animals with increased survival time (C6 glioblastoma cells [1]; [4]): 4/15; animals with tumor completely eradicated (C6 glioblastoma cells [1]; [4]): 5/15; size of tumors versus control animals (C6 glioblastoma cells [2]; 212-2): extraordinarily smaller |
| CCCCCCC(C)(C)c1cc(O)c2c(c1)OC(C)(C)[C@@H]1CC=C(CO)C[C@@H]21 [HU-210] | – | – | 10 | – | – |
| CCCCCCC(C)(C)c1ccc([C@@H]2C[C@H](O)CC[C@H]2CCCO)c(O)c1 [CP-55,940] | – | 45 | – | – | – |
| SR144528 | – | – | – | prevented | – |
| CCCCCc1cc(O)c2c(c1)OC(C)(C)[C@@H]1CCC(C)=C[C@@H]21 [THC, Δ^9-tetrahydrocannabinol] | extraordinarily smaller; also recorded: much smaller | – | 480 | – | induction of death of C6 glioblastoma cells (C6 glioblastoma cells [3]; 1 μM THC, 5 days, n=6): capable of inducing the death |
| Cc1c(C(=O)NN2CCCCC2)nn(-c2ccc(Cl)cc2Cl)c1-c1ccc(Cl)cc1 [SR141716] | – | – | – | prevented | prevention of cell death induced by THC, antagonist added separately (C6 glioblastoma cells [3]; 1 μM THC, 1 μM antagonist, 5 days): Neither |
